pEC50: −log10 of the molar value. Read-outs that look alike come from different tables or passages of the source. Starred links: 1 amine or outer side, 2 acyl side, 3 side chain; linkers in the order of their positions; H or OH if unused. Non-standard residues stand in square brackets, D forms with d. Groups on a side chain read outwards from the residue. No end group written: not given here. *: point of attachment. C20 diacid = O=C(O)CCCCCCCCCCCCCCCCCCC(=O)*; C18 diacid = O=C(O)CCCCCCCCCCCCCCCCC(=O)*; γGlu = O=C(O)[C@H](CCC(=O)[*:2])N[*:1]; αMe4Pal = C[C@](N)(Cc1ccncc1)C(=O)O; 4Pal = N[C@@H](Cc1ccncc1)C(=O)O; αMeL = CC(C)C[C@](C)(N)C(=O)O; Orn = NCCC[C@H](N)C(=O)O; AEEA = NCCOCCOCC(=O)O; Aib = CC(C)(N)C(=O)O
Columns and labels:
Type in all cases: cell-based
hGLP-1R [1] = target: T1, hGLP-1R (Homo sapiens, UniProt P43220); experiment: Functional cAMP activation in the presence of 0.1% casein (no HSA);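 also: intracellular cAMP rise after 30 min at 37 °C read by HTRF, normalized between buffer only (0%) and maximal control ligand (100%), four-parameter variable-slope fit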
T1 sequence (P43220 24-463): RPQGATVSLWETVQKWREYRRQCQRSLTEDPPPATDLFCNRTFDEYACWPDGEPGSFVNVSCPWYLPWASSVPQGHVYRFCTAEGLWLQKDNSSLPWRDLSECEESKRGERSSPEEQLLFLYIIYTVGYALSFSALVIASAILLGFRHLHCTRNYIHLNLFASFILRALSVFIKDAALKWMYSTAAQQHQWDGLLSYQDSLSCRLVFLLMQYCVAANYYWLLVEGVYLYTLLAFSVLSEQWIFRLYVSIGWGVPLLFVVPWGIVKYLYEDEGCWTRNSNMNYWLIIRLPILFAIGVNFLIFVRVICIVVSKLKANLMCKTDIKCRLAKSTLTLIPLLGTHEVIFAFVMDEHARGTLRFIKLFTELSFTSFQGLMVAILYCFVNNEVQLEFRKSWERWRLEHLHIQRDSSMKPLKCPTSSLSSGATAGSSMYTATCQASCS

hGLP-1R [2] = target: T1, hGLP-1R; experiment: Functional cAMP activity in the presence of 1% HSA
hGIPR [3] = target: T2, hGIPR (Homo sapiens, UniProt P48546); experiment: Functional cAMP activity in the presence of 1% HSA
T2 sequence (P48546 22-466): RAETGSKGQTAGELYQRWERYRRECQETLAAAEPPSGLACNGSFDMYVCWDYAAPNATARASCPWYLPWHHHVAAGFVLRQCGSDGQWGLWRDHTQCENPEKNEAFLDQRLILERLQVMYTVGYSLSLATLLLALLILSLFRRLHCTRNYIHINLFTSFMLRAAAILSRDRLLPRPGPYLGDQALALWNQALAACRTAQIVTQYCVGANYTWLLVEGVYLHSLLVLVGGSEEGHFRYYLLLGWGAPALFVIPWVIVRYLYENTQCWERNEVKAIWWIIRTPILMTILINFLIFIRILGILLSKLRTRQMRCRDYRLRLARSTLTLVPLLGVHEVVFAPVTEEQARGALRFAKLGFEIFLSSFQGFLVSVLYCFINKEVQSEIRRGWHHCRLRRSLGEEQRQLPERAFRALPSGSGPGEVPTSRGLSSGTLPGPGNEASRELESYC

hGIPR [4] = target: T2, hGIPR; experiment: Functional cAMP activation in the presence of 0.1% casein (no HSA);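 as to Relative cAMP EC50, hGIPR: intracellular cAMP rise after 30 min at 37 °C read by HTRF against a standard curve, scaled between buffer alone (0%) and top control ligand concentration (100%), four-parameter fit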;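 as to Relative cAMP EC50, hGcgR: intracellular cAMP rise after 30 min at 37 °C, read by HTRF against a cAMP standard curve, scaled from buffer only (0%) to maximal control ligand response (100%)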
hGcgR = hGcgR (Homo sapiens, UniProt P47871); experiment: as above;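 also: intracellular cAMP rise after 30 min at 37 °C, read by HTRF against a cAMP standard curve, scaled from buffer only (0%) to maximal control ligand response (100%)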
Sequence of hGcgR (P47871 26-477): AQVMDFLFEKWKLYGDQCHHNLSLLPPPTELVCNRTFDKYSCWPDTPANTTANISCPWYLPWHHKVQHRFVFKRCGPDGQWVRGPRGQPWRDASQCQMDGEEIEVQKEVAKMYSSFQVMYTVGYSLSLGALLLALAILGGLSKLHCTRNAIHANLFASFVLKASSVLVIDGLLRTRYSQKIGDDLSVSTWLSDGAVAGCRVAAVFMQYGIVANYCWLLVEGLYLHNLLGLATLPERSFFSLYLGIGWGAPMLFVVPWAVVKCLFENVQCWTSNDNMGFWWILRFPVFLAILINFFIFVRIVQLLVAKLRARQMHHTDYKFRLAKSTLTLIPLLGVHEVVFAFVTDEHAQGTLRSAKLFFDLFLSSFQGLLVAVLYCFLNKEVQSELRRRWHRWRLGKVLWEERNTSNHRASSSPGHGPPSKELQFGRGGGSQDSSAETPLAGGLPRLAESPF

human GLP1-R = human GLP1-R (Homo sapiens, UniProt P43220); experiment: GLP1-R internalization assay in HEK293 cells; conditions: for Internalization % TOP: normalized to maximum concentration of GLP-1 (100%)
Sequence of human GLP1-R (P43220 24-463): as the sequence (P43220 24-463) above

human GcgR = human GcgR (Homo sapiens, UniProt P47871); experiment: Functional cAMP activity in the presence of 1% HSA
Sequence of human GcgR (P47871 26-477): as the sequence (P47871 26-477) above

[5] = in the presence of 0.1% casein (no HSA), geometric mean, read-out: Relative cAMP EC50, hGLP-1R
[6] = read-out: cAMP Rel EC50, hGLP-1R
[7] = in the presence of 0.1% casein (no HSA), geometric mean, read-out: Relative cAMP EC50, hGIPR
[8] = in the presence of 0.1% casein (no HSA), geometric mean, read-out: Relative cAMP EC50, hGcgR
[9] = HEK293 cells expressing SNAP-GLP-1R, read-out: GLP1R Internalization EC50

Row | Substance | pEC50 (hGLP-1R [1]; [5]) | pEC50 (hGLP-1R [2]; [6]) | pEC50 (hGIPR [3]; read-out: cAMP Rel EC50, hGIPR) | pEC50 (hGIPR [4]; [7]) | pEC50 (hGcgR; [8]) | pEC50 (human GLP1-R; [9]) | Internalization % TOP (human GLP1-R) [%] | pEC50 (human GcgR; read-out: cAMP Rel EC50, hGcgR) | pEC50 (hGLP-1R [1]) | pEC50 (hGLP-1R [2]) | pEC50 (hGIPR [3]) | pEC50 (hGIPR [4]) | pEC50 (hGcgR) | pEC50 (human GLP1-R) | pEC50 (human GcgR)
1 | H-Y[Aib]QGTFTSDFS[Orn][αMeL]LDKK([AEEA-γGlu-C18 diacid])AQ[Aib]AFIEWLLEGGHSSGAPPPSGT-NH2 [Example 171] | 8.54 | 6.54 | 7.57 | 9.70 | 8.41 | 7.21 | 36.1 | 6.30 | – | – | – | – | – | – | –
2 | H-Y[Aib]QGTFTSDFS[Orn][αMeL]LDKK([AEEA-AEEA-γGlu-C20 diacid])AQ[Aib]AFIEYLLE[Aib]GPSSGAPPPSEG-NH2 [Example 71] | 8.51 | 6.00 | 7.32 | 9.98 | 8.06 | 7.23 | 68.6 | 5.55 | – | – | – | – | – | – | –
3 | H-Y[Aib]QGTFTSDFS[Orn][αMeL]LDKK([AEEA-γGlu-γGlu-C18 diacid])AQ[Aib]AFIEYLLE[Aib]GPSSGAPPPSGS-NH2 [Example 192] | 8.01 | 6.14 | 8.01 | 9.85 | 8.38 | 6.94 | 48.7 | 6.25 | – | – | – | – | – | – | –
4 | H-Y[Aib]QGTFTSDFS[Orn][αMeL]LDKK([AEEA-AEEA-γGlu-C18 diacid])AQ[Aib]AFIEYLLE[Aib]GESSGAPPPSGS-NH2 [Example 179] | 8.24 | 6.04 | 7.67 | 9.98 | 8.32 | 7.20 | 48.4 | 5.84 | – | – | – | – | – | – | –
5 | H-Y[Aib]QGTFTSDFS[Orn][αMeL]LDKK([AEEA-AEEA-γGlu-C20 diacid])AQ[Aib]AFIEYLLE[Aib]GPSSGEPPPGEG-NH2 [Example 69] | 8.49 | 6.55 | 7.59 | 9.87 | 8.32 | 7.14 | 58.2 | 6.41 | – | – | – | – | – | – | –
6 | H-Y[Aib]QGTFTSDFSK[αMeL]LDKK([AEEA-γGlu-C20 diacid])AQ[Aib]AFIEYLLE[Aib]GPSSGAPPPSGS-NH2 [Example 45] | 8.82 | 6.31 | 7.48 | 9.95 | 8.68 | 7.28 | 62.1 | 6.06 | – | – | – | – | – | – | –
7 | H-Y[Aib]QGTFTSDFSR[αMeL]LDKK([AEEA-γGlu-C18 diacid])AQ[αMe4Pal]AFIEYLIE[Aib]GESSGAPPPSGE-NH2 [Example 231] | – | – | – | – | – | – | 27.7 | – | 8.89 | 6.65 | 7.56 | 9.92 | 8.67 | 7.44 | 6.35
8 | H-Y[Aib]QGTFTSDFS[Orn][αMeL]LDKK([AEEA-AEEA-γGlu-C18 diacid])AQ[Aib]AFIEYLLE[dA]GPSSGHPPPSG[4Pal]-NH2 [Example 256] | 8.54 | 6.63 | 7.76 | 9.75 | 8.24 | 7.06 | 43.5 | 6.20 | – | – | – | – | – | – | –
9 | H-Y[Aib]QGTFTSDFSK[αMeL]LDKK([γGlu-γGlu-C18 diacid])AQ[Aib]AFIEYLLEGGPSSGAPPPSEG-NH2 [Example 58] | 8.53 | 7.68 | 8.43 | 9.76 | 8.31 | 7.25 | 78.1 | 6.94 | – | – | – | – | – | – | –
10 | H-Y[Aib]QGTFTSDFS[Orn][αMeL]LDKK([AEEA-γGlu-C18 diacid])AQ[Aib]AFIEWLLEGGTSSGAPPPSGE-NH2 [Example 175] | 8.40 | 6.41 | 7.53 | 9.66 | 8.31 | 6.94 | 49.2 | 6.24 | – | – | – | – | – | – | –
11 | H-Y[Aib]QGTFTSDFS[Orn][αMeL]LDKK([AEEA-AEEA-γGlu-C18 diacid])AQ[Aib]AFIEYLLE[Aib]GPSSGAPPPSGE-NH2 [Example 111] | 8.30 | 6.06 | 7.98 | 10.05 | 8.37 | 7.31 | 46.4 | 5.90 | – | – | – | – | – | – | –
12 | H-Y[Aib]QGTFTSDFSR[αMeL]LDKK([AEEA-γGlu-C18 diacid])AQ[Aib]AFIEYLLE[Aib]GPSSGAPPPSGS-NH2 [Example 79] | – | – | – | – | – | – | 45.3 | – | 8.74 | 6.36 | 7.84 | 10.11 | 8.51 | 7.25 | 6.04
13 | H-Y[Aib]QGTFTSDFSK[αMeL]LDKK([AEEA-γGlu-C20 diacid])AQ[Aib]AFIEYLLAGGPSSGEPPPGEG-NH2 [Example 31] | 8.67 | 6.13 | 7.20 | 9.60 | 8.07 | 7.04 | 67.4 | 5.76 | – | – | – | – | – | – | –
14 | H-Y[Aib]QGTFTSDFSK[αMeL]LDKK([AEEA-γGlu-C20 diacid])AQ[Aib]AFIEYLLAGGPSSGEPPPSGE[AEEA]-NH2 [Example 33] | 8.77 | 6.36 | 7.15 | 9.55 | 8.15 | 6.97 | 64.6 | 5.88 | – | – | – | – | – | – | –
15 | H-Y[Aib]QGTFTSDFS[Orn][αMeL]LDKK([AEEA-γGlu-C18 diacid])AQ[Aib]AFIEYLLAGGPSSGAPPPEGE-NH2 [Example 99] | 8.45 | 6.23 | 7.53 | 9.76 | 8.22 | 7.24 | 46.1 | 5.95 | – | – | – | – | – | – | –
16 | H-Y[Aib]QGTFTSDFS[Orn][αMeL]LDKK([AEEA-γGlu-C18 diacid])AQ[Aib]AFIEYLLEGGPSSGAPPPGGS[AEEA]-NH2 [Example 66] | 8.41 | 6.48 | 7.52 | 9.66 | 8.43 | 7.38 | 46.3 | 6.38 | – | – | – | – | – | – | –
17 | H-Y[Aib]QGTFTSDFS[Orn][αMeL]LDKK([AEEA-γGlu-C18 diacid])AQ[Aib]AFIEYLLAGGPSSGAPPPSGSE-NH2 [Example 90] | 8.57 | 6.43 | 7.60 | 9.76 | 8.02 | 7.15 | 49.8 | 6.00 | – | – | – | – | – | – | –
18 | H-Y[Aib]QGTFTSDYSQ[αMeL]LDKK([AEEA-γGlu-C18 diacid])AQ[Aib]AFIEYLLEGGESSGAPPPSGS-NH2 [Example 362] | 8.75 | 6.35 | 7.41 | 9.58 | 8.22 | 7.64 | 77.5 | 5.84 | – | – | – | – | – | – | –
19 | H-Y[Aib]QGTFTSDFSK[αMeL]LDKK([AEEA-γGlu-C20 diacid])AQ[Aib]AFIEYLLAGGPSSGAPPPGGS-NH2 [Example 16] | 8.81 | 6.55 | 7.44 | 9.66 | 8.05 | 7.42 | 74.6 | 5.78 | – | – | – | – | – | – | –
20 | Y[Aib]QGTFTSDFSK[αMeL]LDKK([AEEA-γGlu-C18 diacid])AQ[Aib]QFIEYLLAGGPSSGEPPPSEG-NH2 [Example 26] | 8.46 | 6.21 | 7.45 | 9.70 | 8.32 | 7.02 | 75.6 | 6.01 | – | – | – | – | – | – | –
